Measured values published in patent publication US20220000875A1, “TOPICAL COMPOSITIONS COMPRISING PENTOXIFYLLINE AND METHODS OF TREATMENT USING THE SAME” (priority 2018, published 2022).

Tests used:
[1] = system: oral ulcers of BD patients; experiment: Randomized, open-label, proof-of-concept clinical study of topical PTX muco-adherent gel: oral ulcer healing, ulcer number, pain; type: in vivo, human
Method: (§1) A randomized, open-label, proof-of-concept clinical study was conducted under an FDA Investigational New Drug Application (IND). […] The CLC was administered orally as a pill and dosed as determined by the subject's physician. No less than every 48 hours, subjects' ulcers were photographed and examined using digital image processing to determine ulcer area, over a period of 14 days, which include daily collection of adverse events, ulcer number, and pain scores.
(§2) Inclusion criteria required the recent (<2 days) appearance of a new oral ulcer. Patients on immunosuppressant therapies were excluded from the study.
Patients were contacted daily for 14 consecutive days and were examined in-person no less than every 48 hours except for weekends. On the first day of entry into the study, the largest ulcer was identified and photographed as the “index ulcer”; its location was recorded and it was subsequently photographed at every in-person visit. Photographs were made with a paper ruler showing millimeter graduations lain in the same plane as the ulcer itself. Graphical processing software was used to compute the ulcer area in square millimeters; this software was calibrated from the paper ruler image and required drawing a line around the image of the ulcer margin.
Then, the proportion of patients with undetectable index ulcer (defined as those with an ulcer area of less than 1 mm^2) at day 4 was compared. Lastly, the trend in mean ulcer area over 14 days was compared as well as the results' sensitivity to outliers.
The total number of oral ulcers were also counted at each in-person visit, and the daily average number of oral ulcers were calculated during the treatment period.
The average day zero pain score for each treatment group was normalized to 100%. Then for each treatment group averages were plotted for succeeding days as a percentage of the first day's pain score average.

[2] = Adverse events in the randomized, open-label clinical study; settings: adverse event
Method: as §1, §2
All adverse events were reviewed in real time by the treating physician investigator.

[3] = cited from earlier work
[4] = day 2 of treatment, PTX+CLC n = 18, CLC n = 21
[5] = interpreted as dermal manifestations of BD

COc1cc2c(c(OC)c1OC)-c1ccc(OC)c(=O)cc1[C@@H](NC(C)=O)CC2 [CLC, colchicine]
Day 2 Growth/Shrinkage - Patients with Index Ulcer Growth, % [1, 4]: 80% | Day 2 Growth/Shrinkage - Patients with Index Ulcer Growth, Number [1, 4]: 16 | Day 2 Growth/Shrinkage - Patients with Index Ulcer Shrinkage, % [1, 4]: 19% | Day 2 Growth/Shrinkage - Patients with Index Ulcer Shrinkage, Number [1, 4]: 4 | Day 4 Clearance - Patients with Remaining Ulcers, % ([1]; day 4, PTX+CLC n = 18, CLC n = 21): 71% | Day 4 Clearance - Patients with Undetectable Ulcers, % ([1]; day 4, undetectable = ulcer area of less than 1 mm^2, PTX+CLC n = 18, CLC n = 21): 29% | mean index ulcer area by treatment group (trend) ([1]; over 14 days, FIG. 1): first growing then slowly decreasing | daily average number of oral ulcers during the treatment phase ([1]; two weeks of treatment): 1.89+/−1.36 | Dysgeusia, % of patients [2]: 0% | Dysgeusia, number of patients [2]: 0 | Nausea, % of patients [2]: 10% | Nausea, number of patients [2]: 2 | Vomiting, number of patients [2]: none | limited dermal rashes, % of patients [2, 5]: 29% | limited dermal rashes, number of patients [2, 5]: 6

Cn1cnc2c1c(=O)n(CCCC(=O)O)c(=O)n2C [Metabolite V, 1-[3-carboxypropyl]-3,7-dimethylxanthine]
plasma levels of metabolite relative to PTX [3]: eight

CC(O)CCCCn1c(=O)c2c(ncn2C)n(C)c1=O (centres unmarked) [Metabolite 1, 1-[5-hydroxyhexyl]-3,7-dimethylxanthine]
plasma levels of metabolite relative to PTX [3]: five
